Experimental data from patent US20250099440A1, “A PHARMACEUTICAL COMBINATION AND USE THEREOF” (Ascentage Pharma (Suzhou) Co., Ltd., priority 2021, published 2025).

What was measured:
[1] = system: RS4;11 cells carrying different Bcl-2 mutation; assay: Cell viability CTG assay in RS4;11 cells, wild type and Bcl-2 mutants; assay type: cell-based, human
Experimental: (§1) Cell viability was determined using CellTiter-Glo® luminescent cell viability assay (Promega) or WST assay (Cell counting Kit-8, Shanghai life iLab, China) by following manufacturer's instruction. Cell viability was calculated as cell viability=(mean RLU sample−mean RLU blank)/(RLU cell control−RLU blank)×100. IC50 value was calculated using GraphPad Prism. Combination index (CI) value was calculated by CalcuSyn software (BIOSOFT, UK). CI<0.9 indicate a synergistic combination effect. CI<0.1 scored as 5+ indicates very strong synergistic combination effect, CI between 0.1 and 0.3 scored as 4+ indicates strong synergistic combination effect, CI between 0.3 and 0.7 scored as 3+ indicates medium synergistic combination effect. Method used was the cell viability CTG assay. RS4;11 cells were established from the bone marrow of a patient with acute lymphoblastic leukemia (ALL).

[2] = system: MM1.S; assay: CDX model of MM1.S; assay type: in vivo
[3] = system: KMS34; assay: CDX model of KMS34; assay type: in vivo
[4] = system: platelet; conditions: compared with Compound E; cited from earlier work
[5] = system: NCI-H929; assay: Cell viability CTG assay in BCL-2i resistant MM model NCI-H929; assay type: cell-based; conditions: insensitive or resistant to BCL-2 inhibitor
Experimental: as §1, with “effect.” for “effect. Method used was the cell viability CTG assay. RS4;11 cells were established from the bone marrow of a patient with acute lymphoblastic leukemia (ALL).”
Method used was the cell viability CTG assay. BCL-2i resistant MM mode NCI-H929 was established.

[6] = system: KMS34; assay: Cell death in Venetoclax-resistant MM cell line KMS34; assay type: cell-based; conditions: compared with Venetoclax and Navitoclax
[7] = system: KMS27 drug-resistant (DTEP) clones; assay: Venetoclax-resistant DTEP clones of KMS27 MM cell line: proliferation and apoptosis; assay type: cell-based
Excerpt: Compared with the parent cells, IC50 is increased by at least 3 to 10 times.

[8] = system: MM1.S; assay: Cell death in Venetoclax-resistant MM cell line MM1.S; assay type: cell-based; conditions: compared with Venetoclax and Navitoclax
[9] = system: RPMI 8226 cells; assay: Cell viability CTG assay in BCL-2i insensitive RPMI 8226 MM cells; assay type: cell-based
Experimental: as §1, with “effect.” for “effect. Method used was the cell viability CTG assay. RS4;11 cells were established from the bone marrow of a patient with acute lymphoblastic leukemia (ALL).”
Method used was the cell viability CTG assay.

[10] = system: primary MM cells; assay: Primary MM cells from 4 MM patients in vitro; assay type: cell-based, human; conditions: compared with venetoclax
Excerpt: The activity of compound E was confirmed in primary MM cells in vitro.

For `CCN1[C@@H](C(=O)NC23CCC(C(=O)O)(CC2)CC3)[C@H](c2cccc(Cl)c2F)[C@]2(C(=O)Nc3cc(Cl)ccc32)C12CCCCC2` [APG-115], the cell viability ([1]; RS4;11-WT and RS4;11 carrying G101V, D103E, V156D, G101V-D103E, CTG) was “effectively decrease cell viability” and the “IC50 (CTG 72 h) compared with ABT-199 (venetoclax)” value ([1]; all RS4;11 cell lines (WT and Bcl-2 mutants), 72 h) was “lower than those of ABT-199 (venetoclax) in all cell lines”.
In the case of `Cc1c(S(C)(=O)=O)c(-c2cc(F)cc(N3CCN(c4ccc(NS(=O)(=O)c5ccc(N[C@H](CCN6CCC(C(=O)OCCCP(=O)(O)O)CC6)CSc6ccccc6)c(S(=O)(=O)C(F)(F)F)c5)cc4)CC3)c2)c(-c2ccc(Cl)cc2)n1C(C)C` [compound D, (3R)-1-(3-(4-(4-(4-(3-(2-(4-chlorophenyl)-1-isopropyl-4-methylsulfonyl-5-methyl-1H-pyrrol-3-yl)-5-fluorophenyl)piperazin-1-yl)-phenylaminosulfonyl)-2-trifluoromethylsulfonyl-anilino)-4-phenylthio-butyl)-piperidine-4-carboxylic acid 3-phosphonopropyl ester], the “efficacy in CDX model” value [2] is listed as “also effective”, the “efficacy in CDX model” value [3] is listed as “also effective” and the platelet toxicity [4] is listed as “lower platelet toxicity”.
For `CN[C@@H](C)C(=O)N[C@H]1CN(S(=O)(=O)c2cccc(S(=O)(=O)N3CC[C@H]4CC[C@@H](C(=O)NC(c5ccccc5)c5ccccc5)N4C(=O)[C@@H](NC(=O)[C@H](C)NC)C3)c2)CC[C@H]2CC[C@@H](C(=O)NC(c3ccccc3)c3ccccc3)N2C1=O` [APG-1387], the “inhibition of cell proliferation” value [5] was “single agent activity to inhibit cell proliferation”.
In the case of `Cc1c(S(C)(=O)=O)c(-c2cc(F)cc(N3CCN(c4ccc(NS(=O)(=O)c5ccc(N[C@H](CCN6CCC(C(=O)O)CC6)CSc6ccccc6)c(S(=O)(=O)C(F)(F)F)c5)cc4)CC3)c2)c(-c2ccc(Cl)cc2)n1C(C)C` [APG-1252M1], the cell death induction [6] is reported as “the most effective in inducing cell death”, the apoptosis [7] is reported as “induced apoptosis” and the “proliferation of drug-resistant clones” value ([7]; compared with Venetoclax) is reported as “successfully inhibited the proliferation of drug-resistant clones”. For the same molecule, the cell death induction [8] was “the most effective in inducing cell death”, the “inhibition of cell proliferation” value ([9]; RPMI 8226 model, insensitive to BCL-2 inhibitor) was “single agent activity in inhibiting cell proliferation” and the “activity in primary MM cells” value [10] was “higher than venetoclax”.
Work on `O=C(NS(=O)(=O)c1ccc(NC[C@H]2COCCO2)c([N+](=O)[O-])c1)c1ccc(N2CCN(CC3=C(c4ccc(Cl)cc4)CC4(CCC4)CC3)CC2)cc1Oc1cnc2[nH]ccc2c1` [APG-2575, (S)—N-((4-(((1,4-dioxan-2-yl)methyl)amino)-3-nitrophenyl)sulfonyl)-2-((1H-pyrrolo[2,3-b]pyridin-5-yl)oxy)-4-(4-((6-(4-chlorophenyl)spiro[3.5]non-6-en-7-yl)methyl)piperazin-1-yl)benzamide] yielded an IC50 ([9]; Homo sapiens, RPMI 8226 cells, CTG) of 5.58 µM.
